Measured values as given in BindingDB's records for doi:10.1021/jm00174a017 (Alter, 1991).

test: Tested for inhibition of [3H]PAF binding to rabbit Platelet activating factor receptor

SMILES | Ki
CCOC(=O)C1C(C)=NC(C)=C(C(=O)OCCSC)C1CC (stereo not given) | 1010 nM
COCCOC(=O)C1C(C)=NC(C)=C(C(=O)OCCSC)C1C (stereo not given) | 4410 nM
CCOC(=O)C1C(C)=NC(C)=C(C(=O)OCCSc2ccccc2)C1C (stereo not given) | 69 nM
COC(=O)C1C(C)=NC(C)=C(C(=O)OCCSc2ccccc2)C1C (stereo not given) | 15 nM
CC1=NC(C)=C(C(=O)OCCSc2ccccc2)C(C)C1C(=O)OC(C)C (stereo not given) | 913 nM
CCSCCOC(=O)C1=C(C)N=C(C)C(C(=O)OC)C1C (stereo not given) | 505 nM
CCOC(=O)C1C(C)=NC(C)=C(C(=O)OCCSC)C1C (stereo not given) | 1040 nM
COC(=O)C1C(C)=NC(C)=C(C(=O)OCCSC)C1C (stereo not given) | 603 nM
CC1=NC(C)=C(C(=O)OCCSc2ccccc2)C(C)C1C(=O)OCC1CCCO1 (stereo not given) | 2090 nM
CCOC(=O)C1C(C)=NC(C)=C(C(=O)OCCSCC)C1C (stereo not given) | 1000 nM
